Measurements as given in US5254579A, “N-(5-thioxo-L-prolyl)-L-cysteine, derivatives thereof, processes for the preparation thereof and pharmaceutical compositions containing them” (Poli Industria Chimica S.p.A., priority 1991, dated 1993).
Where a SMILES comes first, the peptide text is derived from it. [ ]: non-standard residue; d: D form. pGlu = O=C1CC[C@@H](C(=O)O)N1

How the values were obtained:
[1] = tested on: elimination of phenol red from the respiratory fluid; test: Mucosecretolytic activity (phenol red test in the mouse); type: in vivo; conditions: 100 mg/kg os; for Mean secretion (total μg) (mean ± S.E.): controls 2.73 ± 0.18, **p <0.01 Dunnett's "t" test
[2] = In vitro antioxidant activity (DPPH test); type: biochemical
Source text: The antioxidant (radical-scavenger) activity was studied by means of the DPPH in vitro test and with the paracetamol in vivo test.

[3] = tested on: paracetamol acute toxicity; test: In vivo antioxidant activity (paracetamol test); parameters: species or system Male Crl: CD-1 (ICR) BR mice; conditions: 100 mg/kg os 30 minutes before and 5 hours after paracetamol 1000 mg/kg i.p., 6 days; for Mortality (%): controls 90%
Experimental: The in vivo antioxidant (radical scavenger) activity was evidenced by means of the protection test against paracetamol acute toxicity. Male Crl: CD-1 (ICR) BR mice, weighing 25-30 g, were treated intraperitoneally with 1000 mg/kg (1 ml/kg) of paracetamol dissolved in 20% DMF in water immediately before the administration.
In vivo antioxidant activity (paracetamol test)

[4] = known from EP-A-332,946; in words; cited from earlier work

## COC(=O)[C@H](CS)NC(=O)[C@@H]1CCC(=O)N1 [Ic, N-(5-oxo-L-prolyl)-L-cysteine methyl ester] ([pGlu]-Cys-OMe)
[1]
  Variat. (%) of mean secretion vs controls: +143.2%
  Mean secretion (total μg) (mean ± S.E.): 6.64 ± 1.00 µg
[2]; 5.10^-5 M, 50 µM
  Variat. (%) of absorbancies: -49.1%
[2]; 10^-4 M, 100 µM
  Variat. (%) of absorbancies: -82.7%
[2]; 10^-5 M, 10 µM
  Variat. (%) of absorbancies: -10.4%
[3]
  Mortality, Variat. vs controls (%): 45.4%
  Mortality (%): 50%

## CC(=O)N[C@@H](CS)C(=O)O [N-acetyl-L-cysteine]
[1]
  Variat. (%) of mean secretion vs controls: +61.9%
  Mean secretion (total μg) (mean ± S.E.): 4.42 ± 0.83 µg
[2]; 5.10^-5 M, 50 µM
  Variat. (%) of absorbancies: -47.9%
[2]; 10^-4 M, 100 µM
  Variat. (%) of absorbancies: -86.3%
[2]; 10^-5 M, 10 µM
  Variat. (%) of absorbancies: -10.4%
[3]
  Mortality, Variat. vs controls (%): 45.4%
  Mortality (%): 50%

## O=C1O[C@H]([C@@H](O)CO)C(O)=C1O [L-ascorbic acid]
[2]; 5.10^-5 M, 50 µM
  Variat. (%) of absorbancies: -49.5%
[2]; 10^-4 M, 100 µM
  Variat. (%) of absorbancies: -86.0%
[2]; 10^-5 M, 10 µM
  Variat. (%) of absorbancies: -17.6%

## O=C(O)[C@H](CS)NC(=O)[C@@H]1CCC(=S)N1 [Ie, N-(5-thioxo-L-prolyl)-L-cysteine]
[1]
  Variat. (%) of mean secretion vs controls: +112.8%
  Mean secretion (total μg) (mean ± S.E.): 5.81 ± 0.62 µg
[2]; 5.10^-5 M, 50 µM
  Variat. (%) of absorbancies: -51.8%
[2]; 10^-4 M, 100 µM
  Variat. (%) of absorbancies: -83.1%
[2]; 10^-5 M, 10 µM
  Variat. (%) of absorbancies: -14.3%
[3]
  Mortality, Variat. vs controls (%): 66.7%
  Mortality (%): 30%

## N[C@@H](CS)C(=O)O [L-cysteine]
[2]; 5.10^-5 M, 50 µM
  Variat. (%) of absorbancies: -56.5%
[2]; 10^-4 M, 100 µM
  Variat. (%) of absorbancies: -83.7%
[2]; 10^-5 M, 10 µM
  Variat. (%) of absorbancies: -10.9%

## COC(=O)[C@H](CS)NC(=O)[C@@H]1CCC(=S)N1 [Id, N-(5-thioxo-L-prolyl)-L-cysteine methyl ester]
[1]
  Variat. (%) of mean secretion vs controls: +97.4%
  Mean secretion (total μg) (mean ± S.E.): 5.39 ± 0.59 µg
[2]; 5.10^-5 M, 50 µM
  Variat. (%) of absorbancies: -51.8%
[2]; 10^-4 M, 100 µM
  Variat. (%) of absorbancies: -79.1%
[2]; 10^-5 M, 10 µM
  Variat. (%) of absorbancies: -14.3%
[3]
  Mortality, Variat. vs controls (%): 45.4%
  Mortality (%): 50%

## O=C1CC[C@@H](C(=O)N[C@@H](CS)C(=O)O)N1 [N-(5-oxo-L-prolyl)-L-cysteine] ([pGlu]-Cys-OH)
[1]
  Variat. (%) of mean secretion vs controls: +92.7%
  Mean secretion (total μg) (mean ± S.E.): 5.26 ± 0.25 µg
[2]; 5.10^-5 M, 50 µM
  Variat. (%) of absorbancies: -49.6%
[2]; 10^-4 M, 100 µM
  Variat. (%) of absorbancies: -88.1%
[2]; 10^-5 M, 10 µM
  Variat. (%) of absorbancies: -29.6%
[3]
  Mortality, Variat. vs controls (%): 66.7%
  Mortality (%): 30%
[4]
  anticataractogenic activity: known to have anticataractogenic activity
